Several values for one entry are separate records, joined by “and”; a condition that tells them apart may be missing. Equal values may be shown once.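 A five-concentration, 48-hour dose response in 96-well plates underlies each endpoint, interpolated linearly between surrounding concentrations. At the GI50, growth is halved. Definition used: TGI = concentration required for complete inhibition of growth.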
Legend:
Test in all cases: growth of human tumour cells (NCI), 48 h
HOP-92 NSCLC = test system: HOP-92 NSCLC
SF-268 CNS = test system: SF-268 CNS
NCI-H23 lung = test system: NCI-H23 lung
SK-MEL-5 melanoma = test system: SK-MEL-5 melanoma
CCRF-CEM leukemia = test system: CCRF-CEM leukemia
A498 renal = test system: A498 renal
NCI-H460 lung = test system: NCI-H460 lung
SF-295 CNS = test system: SF-295 CNS
UACC-257 melanoma = test system: UACC-257 melanoma
RXF 393 renal = test system: RXF 393 renal

| SMILES | TGI (HOP-92 NSCLC) [µM] | TGI (SF-268 CNS) [µM] | TGI (NCI-H23 lung) | TGI (SK-MEL-5 melanoma) | TGI (CCRF-CEM leukemia) | TGI (A498 renal) [µM] | TGI (NCI-H460 lung) | TGI (SF-295 CNS) | TGI (UACC-257 melanoma) | GI50 (SF-268 CNS) | GI50 (NCI-H23 lung) | GI50 (RXF 393 renal) [µM] | TGI (RXF 393 renal) [µM] | GI50 (SK-MEL-5 melanoma) | GI50 (CCRF-CEM leukemia) | GI50 (A498 renal) [µM] | GI50 (NCI-H460 lung) [µM] | GI50 (SF-295 CNS) [µM] | GI50 (HOP-92 NSCLC) [µM] | GI50 (UACC-257 melanoma) [µM] |
| --- | --- | --- | --- | --- | --- | --- | --- | --- | --- | --- | --- | --- | --- | --- | --- | --- | --- | --- | --- | --- |
| CC(C)(O)[C@@H]1CC[C@@]2(C)CCCC(O)C2(O)C1 (some centres undefined) | > 100 | > 100 | > 100 µM | > 100 µM | > 100 µM | > 100 | > 100 µM | > 100 µM | > 100 µM |  |  |  |  |  |  |  |  |  |  |  |
| Fc1cc2[nH]ncc2c2c3c(c(-c4cn[nH]c4C(F)(F)F)nc12)CCCC3 |  | 5.86 | 6.49 µM | 2.95 µM | > 100 µM | 3.09 | 9.92 µM | 10.3 µM |  | 1.97 µM | 1.49 µM | 1.08 | 2.39 | 1.23 µM | 1.89 µM | 1.56 | 1.16 | 2.15 |  |  |
| COC(=O)C(Cc1cc(OC)c(OC)c(OC)c1)C(=O)OC | > 320 | > 320 | > 320 µM | > 320 µM | > 320 µM |  | > 320 µM | > 320 µM | > 320 µM |  |  |  | > 320 |  |  |  |  |  |  |  |
| CCSCC1CC(O)(c2ccccc2)CC(c2ccc(F)cc2)O1 (centres undefined) | 2.72 | 6.11 | 5.28 µM | 3.16 µM | 5.91 µM | 2.77 | 4.63 µM | 3.92 µM | 5.26 µM | 2.41 µM | 2.1 µM | 1.68 | 3.47 | 1.74 µM | 1.86 µM | 1.44 | 2.24 | 1.9 | 1.25 | 2.27 |
| O=S(=O)(NCCCNc1nccc(-c2c(-c3ccc(O)cc3)nc3sccn23)n1)c1ccc(F)cc1 | 8.56 | 14.7 | 7.7 µM | 2.67 µM |  | 5.16 | 7.18 µM | 4.56 µM | 2.36 µM | 2.94 µM | 2.24 µM | 2.74 | > 100 | 1.21 µM |  | 1.55 | 2.37 | 1.99 | 2.65 | 0.134 |
| COc1ccc(C2=N[C@@H](Cc3ccccc3)C(=O)Nc3ccsc32)cc1 | 16.7 | 43.8 | 39.6 µM | 12.1 µM | 28.1 µM | 9.04 | 14.4 µM |  | 36.7 µM | 10.4 µM | 11.1 µM | 2.75 | 9.6 | 3.26 µM | 3.46 µM | 2.32 | 3.53 |  | 2.32 | 11.6 |
| N#CCCN(c1ccc(C=Nc2ccccc2)cc1)S(=O)(=O)c1ccccc1 | > 100 | > 100 | > 100 µM | > 100 µM | > 100 µM | > 100 |  | > 100 µM | > 100 µM |  |  |  |  |  |  |  |  |  |  |  |
| Cc1cc(S(=O)(=O)Nc2nc3ccccc3o2)c(SCc2ccccc2)cc1Cl | 20.9 | 47.7 | 40.3 µM | 33.4 µM |  | 43.3 | 52.2 µM | 57 µM | 50.2 µM | 18.9 µM | 19 µM | 29.5 | 61.5 | 16.7 µM |  | 23.1 | 15.5 | 19.2 | 4.65 | 21.2 |
| c1ccc2sc(SCCSc3nc4ccccc4s3)nc2c1 | > 100 | > 100 | > 100 µM |  |  | > 100 | > 100 µM | > 100 µM | > 100 µM |  |  |  | > 100 |  |  |  |  |  |  |  |
| O=C(CC(Cl)=C(Cl)Cl)Nc1ccccc1 | > 100 | > 100 | > 100 µM | > 100 µM | > 100 µM | > 100 | > 100 µM |  | > 100 µM | > 100 µM | > 100 µM | > 100 | > 100 | > 100 µM | > 100 µM | > 100 | > 100 |  |  | > 100 |
| O=C(N/C(=C\c1ccc(Cl)cc1)c1nc2ccccc2[nH]1)c1ccccc1 | 33.6 | 38.5 | 42.9 µM | 35.3 µM | 57.3 µM | 52.4 | 49.7 µM |  | 46.2 µM |  |  |  | 42.7 |  |  |  |  |  |  |  |
| Cc1cc(O)c(=O)cc2c1C[C@H]1CC(C)(C)/C=C/C[C@]3(C)Oc4cc(=O)c(O)cc(C)c4C[C@H]3C[C@H](O)[C@@]1(C)O2 |  | > 63.1 | 0.0345 µM | 0.0985 µM | 1.21 µM |  | 10.3 µM |  | 0.0895 µM | < 0.01 µM | < 0.01 µM |  |  | 0.0166 µM | 0.0163 µM |  | < 0.01 |  |  | 0.0215 |
| Cc1c(Cl)cccc1NC(=O)C(=O)C(C(=O)c1ccccc1-c1ccccc1)C1OC(=O)c2ccccc21 (centres undefined) | 34.4 | 61.7 | 30.3 µM | 29.9 µM | 96.9 µM |  | 76.3 µM | 45 µM | 46.8 µM |  |  |  | 27.1 |  |  |  |  |  |  |  |
| N.N.N.N.N.[Co+3].[I-].[N-]=[N+]=[N-] | > 100 | > 100 | > 100 µM | > 100 µM | > 100 µM | > 100 | > 100 µM | > 100 µM | > 100 µM | > 100 µM | > 100 µM |  |  | > 100 µM | > 100 µM | > 100 | > 100 | > 100 | > 100 | > 100 |
| COc1cc2c(cc1OC)[C@@H](Nc1ccc(C#N)cc1)C1COC(=O)[C@@H]1C2c1cc(OC)c(O)c(OC)c1 (some centres undefined) |  |  | 1.47 µM and 0.257 µM | 14.3 µM and 2.53 µM | 0.0709 µM and 0.451 µM | 0.794 | 1.05 µM and 1.72 µM | 2 µM and 3.21 µM | 95 µM and > 100 µM | 0.342 µM and 0.663 µM | 0.159 µM and 0.0337 µM |  | 35.9 | 0.499 µM and 0.292 µM | 0.0111 µM and 0.0152 µM |  |  |  |  |  |
| CC(N)C(Cc1ccc(Cl)cc1)c1ccc(Cl)cc1 (centres undefined) | 19.9 | 26.5 | 27.8 µM | 25.1 µM | 39 µM | 30.7 | 18.5 µM | 23.6 µM |  | 11.4 µM | 13.4 µM | 11.7 | 25.5 | 12.4 µM | 20.3 µM | 15.1 | 5.55 | 10.4 | 5.59 |  |

Source: PubChem BioAssay (NCI)
